Experiments:
Format in all cases: cell-based, human
Collagen IV = test: Expression of collagen IV in NHEK, in situ immunofluorescence; details: 72 hours
Procedure: (§1) The effects of the Aureobasidium pullulans extract and C-β-D-xylopyranoside-2-hydroxypropane (C-Xyloside, Pro-Xylane™) and a combination thereof were evaluated on normal human epidermal keratinocytes (NHEK) by analysing the expression of markers by in situ immunofluorescence labelling and image analysis: • expression of the differentiation markers: Transglutaminase K (TGK), filaggrin and involucrin, • expression of the tight junction proteins: claudin-1, zonula occludens-1 (ZO-1) and occludin,
The compounds were tested at a non-cytotoxic concentration. • Normal human keratinocytes: NHEK, Bioalternatives reference K341 used at third passage. • Culture conditions: 37° C., 5% CO2 • Culture medium: Keratinocyte SFM (serum free medium) supplemented with Epidermal Growth Factor Pituitary extract • Test medium: Keratinocyte SFM (serum free medium) […]
(§2) The labelling was quantified by measuring the fluorescence intensity and normalizing the fluorescence intensity relative to the total number of cells (Digital data integration with Developer Toolbox 1.5 software, GE Healthcare).

CK10 = test: Quantitative PCR analysis of CK10 expression in reconstructed epidermis; details: QPCR, 250 μm, control = 100
Procedure: (§3) Human keratinocytes were seeded onto inserts and then incubated at 37° C. in an atmosphere containing 5% CO2. Between the second and ninth day of incubation, the culture medium was changed every two days. […] On day 17, the reconstructed skins were then recovered and processed in different ways depending on the analysis test performed, namely: • for immunohistofluorescence analysis, the reconstructed skins were recovered, fixed, dehydrated and embedded in paraffin. 4 μm sections were then produced using a microtome (Leica). • for a QPCR test, the reconstructed skins were recovered and the RNAs were extracted in their entirety. For this analysis, the RNAs were reverse-transcribed and the complementary DNAs obtained were analysed via a quantitative PCR technique. The mRNAs of the RPS18, GAPDH and GUSB proteins, the reference internal controls, were analysed in parallel with the mRNAs of ZO-1, CK10, involucrin and TGM1. Quantification of fluorescence incorporation (SYBR Green) was measured continuously using a LightCycler LC480 thermal cycler (Roche) and Ct analysis (relative quantification) was performed using the LC480 software (Roche).

filaggrin [1] = test: Filaggrin synthesis by immunohistofluorescence in reconstructed epidermis
Procedure: (§4) Human keratinocytes were seeded onto inserts and then incubated at 37° C. in an atmosphere containing 5% CO2. Between the second and ninth day of incubation, the culture medium was changed every two days. […] On day 17, the reconstructed skins were then recovered and processed in different ways depending on the analysis test performed, namely: • for immunohistofluorescence analysis, the reconstructed skins were recovered, fixed, dehydrated and embedded in paraffin. 4 μm sections were then produced using a microtome (Leica). • for a QPCR test, the reconstructed skins were recovered and the RNAs were extracted in their entirety. The following primary antibodies were used for this test: • Mouse anti-filaggrin monoclonal antibody • Rabbit anti-loricrin polyclonal antibody • Mouse anti-claudin-1 monoclonal antibody The secondary antibodies used were as follows: • Alexa Fluor® 488-coupled rabbit anti-IgG antibody • Alexa Fluor® 488-coupled mouse anti-IgG antibody Visualization was performed using an IX 70 microscope (Olympus) coupled to an image analysis system (NIS-Elements software, Nikon). The content of the various markers synthesized was proportional to the intensity of the green fluorescence present on the reconstructed epidermis samples. Quantification was performed by means of an image analysis script in Python language. The results are expressed in arbitrary units (AU).

ZO-1 = test: Quantitative PCR analysis of ZO-1 expression in reconstructed epidermis; details: QPCR, 250 μm, control = 100
Procedure: as §3

involucrin [2] = test: Quantitative PCR analysis of involucrin expression in reconstructed epidermis; details: QPCR, 250 μm, control = 100
Procedure: as §3

loricrin = test: Loricrin synthesis by immunohistofluorescence in reconstructed epidermis; details: day 9 to day 17, 250 μm
Procedure: as §4

TGM1 = test: Quantitative PCR analysis of TGM1 expression in reconstructed epidermis; details: QPCR, 250 μm, control = 100
Procedure: as §3

claudin-1 [3] = test: Claudin-1 synthesis by immunohistofluorescence in reconstructed epidermis
Procedure: as §4

occludin = test: Expression of occludin in NHEK, in situ immunofluorescence; details: 144 hours
Procedure: as §1
(§5) The compounds were tested at a non-cytotoxic concentration. • Normal human keratinocytes: NHEK, Bioalternatives reference K341 used at third passage. • Culture conditions: 37° C., 5% CO2 • Culture medium: Keratinocyte SFM (serum free medium) supplemented with Epidermal Growth Factor Pituitary extract • Test medium: Keratinocyte SFM (serum free medium)
The keratinocytes were seeded in 96-well plates and cultured in culture medium for 24 hours. […]
as §2

claudin-1 [4] = test: Expression of claudin-1 in NHEK, in situ immunofluorescence; details: 72 hours
Procedure: as §1, §5
(§6) The keratinocytes were seeded in 96-well plates and cultured in culture medium for 24 hours. The medium was then replaced with a test medium containing or not containing (control) the test compounds, the combination or the reference compound and the cells were incubated for 72 hours.
(§7) The cells were rinsed with PBS solution, fixed and permeabilized. The cells were then labelled using a specific primary antibody (Table 13).
(§8) Image acquisition (five photos/well) was performed using an INCell Analyzer™ 2200 (GE Healthcare, x20 objective).
as §2

[5] = test system: zonula occludens-1 (ZO-1); test: Expression of ZO-1 in NHEK, in situ immunofluorescence; details: 72 hours
Procedure: as §1, §5, §6, §7, §8, §2

Transglutaminase K (TGK) = test: Expression of TGK in NHEK, in situ immunofluorescence; details: 72 hours
Procedure: as §1, §5, §6, §7, §8, §2

filaggrin [6] = test: Expression of filaggrin in NHEK, in situ immunofluorescence; details: 72 hours
Procedure: as §1, §5
The keratinocytes were seeded in a 96-well plate and grown in culture medium for 192 hours with renewal of the culture medium after 24 and 96 hours. The medium was then replaced with a test medium containing or not containing (control) the test compounds, the combination or the reference compound and the cells were incubated for 72 hours.
as §7, §8, §2

involucrin [7] = test: Expression of involucrin in NHEK, in situ immunofluorescence; details: 144 hours
Procedure: as §1, §5
as §6, with “incubated for 144 hours with a repeat treatment after 72 hours.” for “incubated for 72 hours.”
as §7, §8, §2

## TGF-β: positive control for expression of the marker Collagen IV, R&D Systems ref. 240-B
Collagen IV; 10 ng/ml
  Expression of Collagen IV, Integration fluo: 176 % of control

## NC(=O)c1cccnc1 [Niacinamide]
CK10
  Expression of CK10 (%): 100%
Filaggrin [1]; 250 μm
  Efficacy/control (%), filaggrin: +42%
Filaggrin [1]; day 9 to day 17, 250 μm
  Synthesis of filaggrin: 941 × 10^3 AU
ZO-1
  Expression of ZO-1 (%): 91%
Involucrin [2]
  Expression of involucrin (%): 78%
loricrin
  Synthesis of loricin: 214 × 10^3 AU
TGM1
  Expression of TGMI (%): 86%
claudin-1 [3]; 250 μm
  Efficacy/control (%), claudin-1: +10%
claudin-1 [3]; day 9 to day 17, 250 μm
  Synthesis of claudin-1: 266 × 10^3 AU

## [Ca+2].[Cl-].[Cl-] [CaCl2]
occludin; 1.5 mM
  Expression of occludin, Integration fluo: 296 % of control
claudin-1 [4]; 1.5 mM
  Expression of Claudin-1, Integration fluo: 200 % of control
[5]; 1.5 mM
  Expression of ZO-1, Integration fluo: 119 % of control
Transglutaminase K (TGK); 1.5 mM
  Expression of TGK, Integration fluo: 903 % of control
Filaggrin [6]; 1.5 mM
  Expression of Filaggrin, Integration fluo: 159 % of control
Involucrin [7]; 1.5 mM
  Expression of Involucrin, Integration fluo: 126 % of control

## CC(O)C[C@@H]1OC[C@@H](O)[C@H](O)[C@H]1O (stereo partly drawn) [C-β-D-xylopyranoside-2-hydroxypropane]
occludin; 0.3%
  Expression of occludin, Integration fluo: 78 % of control
claudin-1 [4]; 0.03%
  Expression of Claudin-1, Integration fluo: 184 % of control
claudin-1 [4]; 0.1%
  Expression of Claudin-1, Integration fluo: 204 % of control
Collagen IV; 0.3%
  Expression of Collagen IV, Integration fluo: 120 % of control
[5]; 0.03%
  Expression of ZO-1, Integration fluo: 111 % of control
[5]; 0.1%
  Expression of ZO-1, Integration fluo: 124 % of control
[5]; 0.3%
  Expression of ZO-1, Integration fluo: 127 % of control
Transglutaminase K (TGK); 0.03%
  Expression of TGK, Integration fluo: 124 % of control
Transglutaminase K (TGK); 0.1%
  Expression of TGK, Integration fluo: 158 % of control
Transglutaminase K (TGK); 0.3%
  Expression of TGK, Integration fluo: 235 % of control
Filaggrin [6]; 0.1%
  Expression of Filaggrin, Integration fluo: 114 % of control
Filaggrin [6]; 0.3%
  Expression of Filaggrin, Integration fluo: 127 % of control
Involucrin [7]; 0.1%
  Expression of Involucrin, Integration fluo: 109 % of control
Involucrin [7]; 0.3%
  Expression of Involucrin, Integration fluo: 110 % of control

— US20260199223A1, “USE OF AN AUREOBASIDIUM PULLULANS EXTRACT ALONE OR IN COMBINATION WITH A C-GLYCOSIDE AS A COSMETIC ACTIVE PRINCIPLE” (L'OREAL, priority 2022, published 2026)
